{
  "source": "patent US11912686B2",
  "about": "(Gilead Sciences, Inc., priority 2020, dated 2024)",
  "data": [
    {"target": "human LPAR1 (Homo sapiens (Human), UniProt Q92633)", "sequence (Q92633 whole entry)": "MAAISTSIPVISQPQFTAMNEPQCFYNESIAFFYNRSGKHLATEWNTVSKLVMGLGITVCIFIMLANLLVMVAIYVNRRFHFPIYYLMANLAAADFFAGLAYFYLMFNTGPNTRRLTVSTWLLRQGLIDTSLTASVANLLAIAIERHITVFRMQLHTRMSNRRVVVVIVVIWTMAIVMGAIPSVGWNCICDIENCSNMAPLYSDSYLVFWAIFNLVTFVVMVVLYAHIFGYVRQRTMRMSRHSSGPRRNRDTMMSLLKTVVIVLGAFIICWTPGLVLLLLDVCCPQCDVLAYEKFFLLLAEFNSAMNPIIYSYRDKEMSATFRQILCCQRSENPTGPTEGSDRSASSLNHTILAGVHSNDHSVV", "assay": "LPAR1 intracellular calcium mobilization assay (antagonist mode, FLIPR)", "format": "cell-based", "details": "CHO-K1 EDG2 cells expressing human LPAR1, LPA 18:2 at EC80 (100 nM), test compound 0.5 nM to 10 μM", "units": {"EC50": "nM"}, "values": [
      {"smiles": "C[C@@H](OC(=O)Nc1c(-c2ccc(NC(=O)[C@@H]3C[C@H]3[N+](=O)[O-])cn2)nnn1C)c1cc(F)cnc1F", "note": "(mixture of isomers) [Compound 211, (R)-1-(2,5-difluoropyridin-3-yl)ethyl (1-methyl-4-(5-((1RS,2RS)-2-nitrocyclopropane-1-carboxamido)pyridin-2-yl)-1H-1,2,3-triazol-5-yl)carbamate]", "EC50": 37.4},
      {"smiles": "Cc1cnoc1C(=O)Nc1ccc(-c2nnn(C)c2NC(=O)O[C@H](C)c2cc(F)cnc2F)nc1", "note": "[Compound 227, (R)-1-(2,5-difluoropyridin-3-yl)ethyl (1-methyl-4-(5-(4-methylisoxazole-5-carboxamido)pyridin-2-yl)-1H-1,2,3-triazol-5-yl)carbamate]", "EC50": 206},
      {"smiles": "C[C@H](O)C(=O)Nc1ccc(-c2nnn(C)c2NC(=O)O[C@H](C)c2cccnc2Cl)nc1", "note": "[Compound 125, (R)-1-(2-chloropyridin-3-yl)ethyl (4-(5-((S)-2-hydroxypropanamido)pyridin-2-yl)-1-methyl-1H-1,2,3-triazol-5-yl)carbamate]", "EC50": 2710},
      {"smiles": "CC(C)COC(=O)Nc1ccc(-c2nnn(C)c2NC(=O)O[C@H](C)c2cccnc2Cl)nc1", "note": "[Compound 22, (R)-1-(2-chloropyridin-3-yl)ethyl (4-(5-((isobutoxycarbonyl)amino)pyridin-2-yl)-1-methyl-1H-1,2,3-triazol-5-yl)carbamate]", "EC50": 43.4},
      {"smiles": "C[C@@H](OC(=O)Nc1c(-c2ccc(NC(=O)C3(C(F)F)CNC3)cn2)nnn1C)c1cc(F)cnc1F", "note": "[Compound 298, (R)-1-(2,5-difluoropyridin-3-yl)ethyl (4-(5-(3-(difluoromethyl)azetidine-3-carboxamido)pyridin-2-yl)-1-methyl-1H-1,2,3-triazol-5-yl)carbamate]", "EC50": 1250},
      {"smiles": "C[C@@H](OC(=O)Nc1c(-c2ncc(NC(=O)C3(C#N)CC3)cn2)nnn1C)c1cc(F)cnc1Cl", "note": "[Compound 329, (R)-1-(2-chloro-5-fluoropyridin-3-yl)ethyl (4-(5-(1-cyanocyclopropane-1-carboxamido)pyrimidin-2-yl)-1-methyl-1H-1,2,3-triazol-5-yl)carbamate]", "EC50": 749},
      {"smiles": "C[C@@H](OC(=O)Nc1c(-c2ccc(NC(=O)C3(C#N)CC3(C)C)cn2)nnn1C)c1cccnc1Cl", "note": "(stereo partly drawn) [Compound 146, (R)-1-(2-chloropyridin-3-yl)ethyl (4-(5-(1-cyano-2,2-dimethylcyclopropane-1-carboxamido)pyridin-2-yl)-1-methyl-1H-1,2,3-triazol-5-yl)carbamate]", "EC50": 271},
      {"smiles": "C[C@@H](OC(=O)Nc1c(-c2ccc(NC(=O)[C@@]3(C#N)C[C@@H]3C(F)F)cn2)nnn1C)c1cc(F)cnc1F", "note": "[Compound 246, (R)-1-(2,5-difluoropyridin-3-yl)ethyl (4-(5-((1S,2S)-1-cyano-2-(difluoromethyl)cyclopropane-1-carboxamido)pyridin-2-yl)-1-methyl-1H-1,2,3-triazol-5-yl)carbamate]", "EC50": 103},
      {"smiles": "C[C@@H](OC(=O)Nc1c(-c2ccc(NC(=O)[C@@H]3C[C@H]3F)cn2)nnn1C)c1cccnc1Cl", "note": "[Compound 69, (R)-1-(2-chloropyridin-3-yl)ethyl (4-(5-((1S,2R)-2-fluorocyclopropane-1-carboxamido)pyridin-2-yl)-1-methyl-1H-1,2,3-triazol-5-yl)carbamate]", "EC50": 53},
      {"smiles": "C[C@@H](OC(=O)Nc1c(-c2ccc(NC(=O)C3CC(C)(O)C3)cn2)nnn1C)c1cccnc1Cl", "note": "(stereo partly drawn) [Compound 109, (R)-1-(2-chloropyridin-3-yl)ethyl (4-(5-(3-hydroxy-3-methylcyclobutane-1-carboxamido)pyridin-2-yl)-1-methyl-1H-1,2,3-triazol-5-yl)carbamate]", "EC50": 1710},
      {"smiles": "C[C@@H](OC(=O)Nc1c(-c2ccc(NC(=O)c3cnn(C)c3)cn2)nnn1C)c1cccnc1Cl", "note": "[Compound 112, (R)-1-(2-chloropyridin-3-yl)ethyl (1-methyl-4-(5-(1-methyl-1H-pyrazole-4-carboxamido)pyridin-2-yl)-1H-1,2,3-triazol-5-yl)carbamate]", "EC50": 1400}
    ]}
  ]
}
